According to article PMC7738871, “Covalent modification of Keap1 at Cys77 and Cys434 by pubescenoside a suppresses oxidative stress-induced NLRP3 inflammasome activation in myocardial ischemia-reperfusion injury” (Theranostics, 2021):

Assays:
[1] = test system: Nrf2 knockdown H9c2 cells; test: OGD/R viability in Nrf2 siRNA knockdown H9c2; type: cell-based, rat; details: Nrf2 siRNA 24 h, H9c2, MTT
Experimental: Cell viability was determined by MTT assays. PBA was prepared to a stock solution dissolved in dimethyl sulfoxide (DMSO). RAW264.7, H9c2 cells, primary mouse cardiomyocytes were treated with different doses of PBA, and DMSO only as control for 48 h for the toxicity. In addition, H9c2 cells or primary mouse cardiomyocytes were treated with the indicated doses of PBA, diazoxide as positive control, DMSO only as control, then cultured with or without OGD/R treatment. At the end of the experiments, MTT was added into each well at the concentration of 0.5 mg/ml, and incubated at 37 °C for 4 h. After removal of the supernatant, 150 μL of DMSO was added to solubilize the formazan products. And the solution was measured at the absorbance of 490 nm by a spectrophotometer (Thermo Fisher Scientific, MA, USA). The results of the MTT assay in all groups were normalized to the control group with DMSO only treatment.
For transient transfection, HiPerFect Transfection Reagent (Qiagen, German) was used according to the manufacturer's instructions. Nrf2 siRNA (h) (sc-156128) and control siRNA-A (sc-37007) were bought from Santa Cruz Biotechnology. Briefly, H9c2 cells were seeded in 96-well plate at the density of 2x10^4 cells per well or 12-well plate at the density of 3x10^5 cells per well. According to preliminary results, transfection with siRNA for 24 h could get a better knockdown effect. […]

[2] = test system: Nrf2; test: Nrf2 nuclear translocation; type: cell-based, rat; details: PBA for 6 h
Experimental: Total protein was isolated from H9c2 cells, primary mouse cardiomyocytes, RAW264.7 cells and heart tissue using 1X RIPA buffer containing phosphatase and proteinase inhibitors at 4 °C. After measurement of the concentration, the cell lysates were separated by sodium dodecyl sulphate polyacrylamide gel electrophoresis (SDS-PAGE) and transferred to polyvinylidene fluoride (PVDF) membranes. The membranes were blocked in Tris-buffered saline-Tween 20 (TBST) buffer with 5% BSA for 1 h and incubated with primary antibodies (1:1000 dilution) overnight at 4 °C. After the membranes was washed by TBST buffer for three times, they were incubated with horseradish peroxidase (HRP)-conjugated secondary mouse or rabbit antibodies (1:3,000 dilution) at room temperature (RT) for 1.5 h and then detected by SuperEnhanced chemiluminescence (ECL) reaction reagents (GBCBIO Technologies Inc., Guangzhou, Guangdong, China). […] After letting the membranes stand for 1-2 min, the bands of the respective proteins were detected with the exposure time of 10 ~60 s.
According to previous experiences, Nrf2 nucleus translocation could be detected at 6 h. […] After several washes with PBS, the bound antibodies were detected by Alexa Fluor 594-conjugated goat anti-rabbit or Alexa Fluor 488-conjugated goat anti-mouse IgG secondary antibody at RT for 1 h. […]

[3] = test system: Nrf2-/- mice under AMI/R injury; test: LAD-induced AMI/R in Nrf2-/- mice; type: in vivo, mouse
Experimental: The experimental procedures and protocols were approved by the Committee on Ethical USE of Animals of International Institute for Translational Chinese Medicine, Guangzhou University of Chinese Medicine (No. IITCM-20180115). Adult male C57BL/6 mice were purchased from the Laboratory Animal Center, Sun Yat-Sen University (Guangzhou, Guangdong, China), and Nrf2 knockout mice were obtained from Riken. Adult male C57BL/6 or Nrf2 knockout mice were treated with 30 mg/kg PBA or an equal volume of vehicle 15 min prior to reperfusion. Mice were divided into 6 groups: (1) Wild-type sham (n = 10): C57BL/6 mice received vehicle, as the sham group; (2) Wild-type AMI/R group (n = 10): C57BL/6 mice received vehicle (i.p.) 15 min before reperfusion; (3) Wild-type AMI/R plus PBA group (n = 10): C57BL/6 mice received 30 mg/kg PBA (i.p.) 15 min before reperfusion; (4) Nrf2 knockout sham (n = 8) : Nrf2 knockout mice received vehicle (i.p.), as in the sham group; (5) Nrf2 knockout AMI/R group (n = 8): Nrf2 knockout mice received vehicle (i.p.) 15 min before reperfusion; (6) Nrf2 knockout AMI/R plus PBA group (n = 8): Nrf2 knockout mice received 30 mg/kg PBA (i.p.) 15 min before reperfusion. PBA was dissolved in 0.9% NaCl buffer containing 2% EtOH. The vehicle was 0.9% NaCl buffer containing 2% EtOH.
The C57BL/6 mice or Nrf2 knockout mice underwent myocardial ischemia-reperfusion injury as described previously. In brief, mice were anaesthetized by i.p. injection of sodium pentobarbital at a dose of 50 mg/kg and ventilated under a pressure-control VentStar R415 ventilator (RWD Life Science Inc., Shenzhen, China). Following thoracotomy between the 3rd and 4th intercostal spaces, the mouse heart was exposed. The LAD was ligated with an 8-0 silk suture and the PE10 tube for 30 min. PBA and vehicle were i.p. injected 15 min prior to reperfusion. After 30 min of ischemia, the suture with PE10 tube was removed. At the end of 24 h of reperfusion, the LAD was relegated, and 1% Evans blue dye was injected to measure the area at risk (AAR). The hearts of the mice were collected, and frozen at -80 °C for 10 min and cut into 5 slices. The slices were incubated with 1% 2,3,5-triphenyltetrazolium chloride (TTC, Santa Cruz, USA) at 37 °C for 15 min and fixed with 4% paraformaldehyde overnight. The slices were captured and the areas of AAR and IA were quantified by using ImageJ software.
Hemodynamic measurements were performed using a PV-loop catheter (Transonic Systems Inc., Ithaca, NY, USA). Hemodynamic measurements were analysed using Ponemah 7700 modules software according to a standardized protocol. The maximum rate of rise of left ventricular pressure increase (+dp/dtmax) and the maximum rate of rise of left ventricular pressure decrease (-dp/dtmax) were calculated for all mice.

For C=C(COC(=O)C=Cc1ccc(O)c(O)c1)C(O)COC1OC(CO)C(O)C(O)C1O (stereo not shown) [PBA, pubescenoside A], the “cardioprotection against OGD/R after Nrf2 knockdown” value [1] was “blocked”, the “Nrf2 translocation into nucleus” value [2] was “significantly promoted” and the “inflammatory cells infiltration and disturbed myofibrillar structure (H&E staining)” value [3] was “could not suppress”. The cardioprotective effect ([3]; 30 mg/kg i.p., AMI/R) was “disappeared”, the “decrease effect of CK-MB level” value ([3]; 30 mg/kg i.p., AMI/R) was “blocked” and the “increase effect of -dp/dtmax and -dp/dtmax” value ([3]; 30 mg/kg i.p., AMI/R) was “blocked”. The “suppressive effect on the NLRP3 inflammasome in heart tissue” value ([3]; WB analysis) was “blocked”.
